This assay deals with BDF1 mice, P1081 chloroleukemia ip, survival T/C. Put plainly: NCI In Vivo Anticancer Drug Screen. Data for tumor model P1081 Chloroleukemia (intraperitoneal) in B6D2F1 (BDF1) mice. The conditions noted are these: endpoint: mean survival time, higher = longer survival. On the procedure:
The antitumor activity of compounds was measured in mice bearing transplantable tumors. Survival or tumor size were measured and the results are expressed as the measurement made in the treated group (T) divided by the measurement made in the vehicle treated control group (C). The tumor model used in this assay is P1081 Chloroleukemia (intraperitoneal) in B6D2F1 (BDF1) mice

The mark [1] stands for this setting: dose: 25.0 mg/kg/injection, schedule: Q01DX Z (ip), vehicle: carboxymethylcellulose (CMC).
[2] abbreviates: dose: 50.0 mg/kg/injection, schedule: Q01DX Z (ip), vehicle: carboxymethylcellulose (CMC).
Where [3] appears, read: dose: 62.5 mg/kg/injection, schedule: Q01DX010 (ip), vehicle: saline.
[4] abbreviates: dose: 125.0 mg/kg/injection, schedule: Q01DX010 (ip), vehicle: saline.
Setting [5] is: dose: 250.0 mg/kg/injection, schedule: Q01DX010 (ip), vehicle: saline.

Values joined by “and” are separate entries in the source; they are usually repeats but may differ in a detail not shown here. Identical values can stand only once. Toxic doses and inconclusive results are not listed.

Consider `Nc1nc(F)nc2c1ncn2C1OC(CO)C(O)C1O` (configuration not stated), for which the T/C was 100 % of control (dose: 0.25 mg/kg/injection, schedule: Q01DX010 (ip), vehicle: saline); 94 % of control (dose: 0.5 mg/kg/injection, schedule: Q01DX010 (ip), vehicle: saline); 110 % of control and 100 % of control (dose: 1.0 mg/kg/injection, schedule: Q01DX010 (ip), vehicle: saline); 111 % of control and 105 % of control (dose: 2.0 mg/kg/injection, schedule: Q01DX010 (ip), vehicle: saline); 95 % of control (dose: 4.0 mg/kg/injection, schedule: Q01DX010 (ip), vehicle: saline).

For the compound `O=C(O)CCCc1ccc(N(CCCl)CCCl)cc1`, the T/C was 90 % of control (dose: 0.8 mg/kg/injection, schedule: Q01DX Z (ip), vehicle: carboxymethylcellulose (CMC)); 92 % of control (dose: 1.6 mg/kg/injection, schedule: Q01DX Z (ip), vehicle: carboxymethylcellulose (CMC)); 102 % of control (dose: 3.1 mg/kg/injection, schedule: Q01DX Z (ip), vehicle: carboxymethylcellulose (CMC)); 105 % of control and 120 % of control (dose: 3.13 mg/kg/injection, schedule: Q01DX010 (ip), vehicle: saline); 113 % of control (dose: 6.2 mg/kg/injection, schedule: Q01DX Z (ip), vehicle: carboxymethylcellulose (CMC)); 105 % of control and 115 % of control (dose: 6.25 mg/kg/injection, schedule: Q01DX010 (ip), vehicle: saline). In addition, the T/C reads like this: (dose: 6.25 mg/kg/injection, schedule: Q01DX Z (ip), vehicle: carboxymethylcellulose (CMC)) 86 % of control; (dose: 12.5 mg/kg/injection, schedule: Q01DX Z (ip), vehicle: carboxymethylcellulose (CMC)) 107 % of control; under setting [1], 114 % of control; under setting [2], 102 % of control.

`Cn1cc(NC(=O)c2cc(NC(=O)CN=C(N)N)cn2C)cc1C(=O)NCCC(=N)N`: the T/C (dose: 6.3 mg/kg/injection, schedule: Q01DX Z (ip), vehicle: saline) is 102 % of control; the T/C (dose: 12.5 mg/kg/injection, schedule: Q01DX Z (ip), vehicle: saline) is 100 % of control; the T/C (dose: 25.0 mg/kg/injection, schedule: Q01DX Z (ip), vehicle: saline) is 92 % of control.

On to `COc1ccc2c(c1OC)C(=O)O[C@@H]2[C@H]1c2c(cc3c(c2OC)OCO3)CCN1C`, for which the T/C was 88 % of control and 90 % of control (dose: 31.3 mg/kg/injection, schedule: Q01DX010 (ip), vehicle: saline); 88 % of control and 95 % of control under setting [3]; 88 % of control and 90 % of control under setting [4]; 88 % of control and 90 % of control under setting [5].

As to `CCOC(N)=O`, the T/C runs as follows: under setting [4], 110 % of control and 100 % of control; (dose: 125.0 mg/kg/injection, schedule: Q01DX Z (ip), vehicle: saline) 95 % of control and 102 % of control; under setting [5], 90 % of control and 100 % of control; (dose: 250.0 mg/kg/injection, schedule: Q01DX Z (ip), vehicle: saline) 100 % of control and 101 % of control; (dose: 500.0 mg/kg/injection, schedule: Q01DX010 (ip), vehicle: saline) 90 % of control and 100 % of control; (dose: 500.0 mg/kg/injection, schedule: Q01DX Z (ip), vehicle: saline) 92 % of control.

On to `Nc1nc2n[nH]nc2c(=O)[nH]1`, for which the T/C (dose: 50.0 mg/kg/injection, schedule: Q01DX Z (ip), vehicle: other) was 175 % of control and the T/C (dose: 100.0 mg/kg/injection, schedule: Q01DX Z (ip), vehicle: other) was 183 % of control.

`S=c1nc[nH]c2nc[nH]c12`: the T/C (dose: 1.56 mg/kg/injection, schedule: Q01DX Z (ip), vehicle: other) was 108 % of control; the T/C (dose: 3.12 mg/kg/injection, schedule: Q01DX Z (ip), vehicle: other) is 120 % of control; the T/C (dose: 5.0 mg/kg/injection, schedule: Q01DX010 (ip), vehicle: alkali diluted with saline) was 110 % of control and 97 % of control; the T/C (dose: 10.0 mg/kg/injection, schedule: Q01DX010 (ip), vehicle: alkali diluted with saline) was 105 % of control and 92 % of control; the T/C (dose: 20.0 mg/kg/injection, schedule: Q01DX010 (ip), vehicle: alkali diluted with saline) was 106 % of control (2×) and 112 % of control; the T/C (dose: 40.0 mg/kg/injection, schedule: Q01DX010 (ip), vehicle: alkali diluted with saline) is 118 % of control and 90 % of control and 103 % of control. Also, the T/C is, setting by setting: (dose: 80.0 mg/kg/injection, schedule: Q01DX010 (ip), vehicle: alkali diluted with saline) 108 % of control and 116 % of control; (dose: 200.0 mg/kg/injection, schedule: Q01DX Z (ip), vehicle: other) 91 % of control and 100 % of control.

In the case of `c1ccc(CCSc2ncnc3nc[nH]c23)cc1`, the T/C is 120 % of control under setting [3] and 120 % of control under setting [4].

In the case of `N=[N+]=CC(=O)OCC(N)C(=O)O` (configuration not stated), the T/C reads like this: (dose: 0.94 mg/kg/injection, schedule: Q01DX Z (ip), vehicle: saline) 113 % of control; (dose: 1.25 mg/kg/injection, schedule: Q01DX Z (ip), vehicle: saline) 118 % of control and 122 % of control; (dose: 2.5 mg/kg/injection, schedule: Q01DX Z (ip), vehicle: saline) 107 % of control and 117 % of control; (dose: 3.75 mg/kg/injection, schedule: Q01DX Z (ip), vehicle: saline) 160 % of control; (dose: 12.5 mg/kg/injection, schedule: Q01DX010 (ip), vehicle: saline) 175 % of control; (dose: 25.0 mg/kg/injection, schedule: Q01DX010 (ip), vehicle: saline) 90 % of control and 95 % of control.

Take `NC(=O)N(CCCl)N=O`: the T/C is, setting by setting: (dose: 1.0 mg/kg/injection, schedule: Q01DX Z (ip), vehicle: carboxymethylcellulose (CMC)) 97 % of control; (dose: 4.0 mg/kg/injection, schedule: Q01DX Z (ip), vehicle: carboxymethylcellulose (CMC)) 95 % of control; (dose: 8.0 mg/kg/injection, schedule: Q01DX Z (ip), vehicle: carboxymethylcellulose (CMC)) 106 % of control; (dose: 16.0 mg/kg/injection, schedule: Q01DX Z (ip), vehicle: carboxymethylcellulose (CMC)) 108 % of control.

As for `CC[C@@H](c1ccc(O)cc1)[C@@H](CC)c1ccc(O)cc1`, the T/C is 101 % of control (dose: 62.5 mg/kg/injection, schedule: Q01DX Z (sc), vehicle: steriod suspending solution); 104 % of control (dose: 125.0 mg/kg/injection, schedule: Q01DX Z (sc), vehicle: steriod suspending solution); 108 % of control and 118 % of control and 105 % of control (dose: 250.0 mg/kg/injection, schedule: Q01DX Z (sc), vehicle: steriod suspending solution); 108 % of control and 112 % of control and 103 % of control (dose: 500.0 mg/kg/injection, schedule: Q01DX Z (sc), vehicle: steriod suspending solution); 102 % of control (dose: 1000.0 mg/kg/injection, schedule: Q01DX Z (sc), vehicle: steriod suspending solution); 100 % of control (dose: 2000.0 mg/kg/injection, schedule: Q01DX Z (sc), vehicle: steriod suspending solution).

`C[C@@H]1C[C@H]2CC[C@H](O2)[C@H](C)C(=O)O[C@@H](C)C[C@@H]2CC[C@@H](O2)[C@@H](C)C(=O)O[C@H](C)C[C@H]2CC[C@H](O2)[C@H](C)C(=O)O[C@@H](C)C[C@@H]2CC[C@@H](O2)[C@@H](C)C(=O)O1`: the T/C under setting [1] was 107 % of control; the T/C under setting [2] was 109 % of control; the T/C (dose: 100.0 mg/kg/injection, schedule: Q01DX Z (ip), vehicle: carboxymethylcellulose (CMC)) is 100 % of control; the T/C (dose: 200.0 mg/kg/injection, schedule: Q01DX Z (ip), vehicle: carboxymethylcellulose (CMC)) was 93 % of control.

Consider `C[C@]12CC[C@H](OC3OC(CO)C(O)C(O)C3O)C[C@H]1CC[C@@H]1[C@@H]2CC[C@]2(C)[C@@H](C3=CCOC3=O)CC[C@]12O` (some centres not stated), for which the T/C runs as follows: (dose: 0.5 mg/kg/injection, schedule: Q01DX Z (ip), vehicle: saline) 94 % of control; (dose: 1.0 mg/kg/injection, schedule: Q01DX Z (ip), vehicle: saline) 96 % of control; (dose: 31.0 micrograms/kg/injection, schedule: Q01DX Z (ip), vehicle: saline) 101 % of control; (dose: 63.0 micrograms/kg/injection, schedule: Q01DX Z (ip), vehicle: saline) 98 % of control; (dose: 125.0 micrograms/kg/injection, schedule: Q01DX Z (ip), vehicle: saline) 104 % of control; (dose: 250.0 micrograms/kg/injection, schedule: Q01DX Z (ip), vehicle: saline) 104 % of control. In addition, for the setting “dose: 500.0 micrograms/kg/injection, schedule: Q01DX Z (ip), vehicle: saline”, the T/C is 110 % of control.

Source of the values: PubChem BioAssay AID246 (DTP/NCI, 2004).
